# In patent US20040038888A1 (priority 2002, published 2004):
# Experiments:
# [1] = system: hippocampal NSC/neural progenitors cells; assay: PACAP/BrdU infusion, BrdU labelling of the dentate gyrus; type: in vivo, mouse; details: 600 nM pump concentration, 0.5 μl/hr into the lateral ventricle, 3.5 days, relative to vehicle
# Procedure: 10 week old male mice (C57B1/2), maintained on a 12 hr light/dark cycle with food and water ad libidum, were infused in the right lateral ventricle with PACAP38 (Bachem), using a Alzet pump (1007D), for 3,5 days or 7 days at a daily dose of 31 ng/day (600 nM PACAP pump concentration infused at a rate of 0.5 μl/hr). Bromodeoxyuridine (BrdU) (50 mg/ml) was also included in the infusion vehicle (0.9% saline containing 1 mg/ml mouse serum albumin (Sigma)) to enable measurement of proliferation by quantitation of BrdU incorporation in the DNA. The group of infused with either PACAP/BrdU or vehicle/BrdU for 3,5 days and sacrificed at this time point. […]
# Brains were cut into 14-μm coronal sections using a cryostat-microtome. […] After 1 hour of washing, the BrdU-antibody complex was detected using 0.05% diaminobenzidine with 0.01% H2O2, and counterstained with Hematoxylin. […]
# For all BrdU labelling experiments, three to six sections per animal were analysed. […] The number of BrdU-labelled cells per area of dentate granule cell layer was counted manually. […] BrdU-positive cells were counted along 2×250 micrometer strips of the lateral ventricle wall (see FIG. 18). Area measurements of both the dentate granule cell layer and the “counted” region of the lateral ventricle wall (including the ependymal cell layer and subventricular zone) were made from each slide used for the cell counts. […]
# AP-1 = AP-1 transcription factor reporter assay; type: cell-based, mouse; details: PACAP 100 nM, 20 hours after induction, compared to non-induced cells
# Procedure: Vectors: Vector DNA containing reporter elements for AP-1 and empty cloning vector (pTAL), with a luciferace reporter were purchased from Promega. The vectors were propagated in E. coli strain JM-109 (Promega) and purified with Qiagens maxi-prep Kit (Qiagen). The concentration was diluted to approximately 1 mg/ml per vector.
# Transfection: Transient transfection was performed by seeding cells as above in suspension neurosphere cell culture and adherent neurosphere cell culture (1 to 3 day incubation) using 30,000 single cells/well. Each well was transiently transfected with […] plasmid, 0.6 μg Nupherin-neuron (Biomol) and 0,6 μl of Fugene-6 (Roche). Plasmid and Nupherin was mixed and diluted in DMEM/F12 to a total volume of 50 μl/well, and were incubated for 15 minutes prior to mixing with Fugene-6 that were diluted in DMEM/F12 to a total volume of 50 μl/well. The mix of plasmid and Nupherin and Fugene-6 were incubated for 20 min. The volume was adjusted to 100 μl prior to addition of 100 μl/well of transfection reagent.
# Assay: The following day the transiently transfected cells were applied with PACAP (Bachem) to final concentration of 100 nM/well, in the presence or absence of MEK inhibitor, […] (Sigma-Aldrich). Luciferace activity was analysed with steady glow (Promega) according to the instructions of the manufacturer. Cells were analysed 20 hours after induction with PACAP.
substance,measurement,setting,value
pituitary adenylate cyclase-activating polypeptide [PACAP],proliferation in the ipsilateral dentate gyrus (BrdU positive cells/mm^2),[1],significant increase in proliferation
same,AP-1 expression (luciferace activity),AP-1,significantly induced
